The structures appear in SMILES notation.

The source of these data is patent publication EP4640674A1, “CRYSTAL FORMS OF ETHOXIMOD, PREPARATION METHOD THEREFOR AND USE THEREOF” (Jiankuan (Suzhou) Biotechnology Co., Ltd, priority 2022, dated 2024).

A short description of the data set: Stability of crystal form C on drying (XRPD). Format: physicochemical. From the text:
The sample was subjected to a TGA test. From the above results, it is speculated that the crystal form C is an unstable channel hydrate that is prone to crystal transformation during drying and placement, making the preparation of a pure phase difficult.

`CCc1nc(-c2ccc(-c3ccc(CCC(N)(CO)CO)cc3)cc2)co1.Cl` [crystal form C, 2-amino-2-{2-(4'-(2-ethyloxazol-4-yl)-[1,1'-biphenyl]-4-yl)ethyl}-1,3-propylene glycol hydrochloride]: the “crystal form after drying (XRPD)” value reads like this: (purged with nitrogen at room temperature for 3 h) “partially crystal transformed into the crystal form A”; (vacuum at 50 °C under reduced pressure, dried overnight) “partially crystal transformed into a crystal form A”.
